From patent publication US20240279232A1, “USE OF SUBSTITUTED 5-(4-METHYL-6-PHENYL-4H-BENZO[F]IMIDAZO[1,5-A][1,4] DIAZEPIN-3-YL)-1,2,4-O[…] THE TREATMENT OF INFLAMMATORY CONDITIONS” (priority 2021, published 2024)

What was measured:
HEPG2 = assay: Viability assay (CellTiter-Glo), HEPG2; format: cell-based, human; settings: for Cell viability (%) HEPG2 120 μM: CellTiter-Glo
Method: (§1) The screen identified several compounds that reduced NO in activated microglia and macrophages. The tested compounds included achiral and chiral imidazodiazepines and benzodiazepines. In general, microglia were more sensitive to compound treatment with more pronounced reduction of NO than macrophages. […] Cell viability assays with HEK293 (kidney) and HepG2 (liver) cells were conducted in a concentration dependent manner. A limited number of compounds, such as GL-III-63, GL-III-76A, and GL-III-77, were toxic at 120 μM.
(§2) Viability assay. Human liver hepatocellular carcinoma (HEPG2) and human embryonic kidney 293T (HEK293T) cell lines were purchased (ATCC) and cultured in 75 cm^2 flasks (CellStar). Cells were grown in DMEM/High Glucose (Hyclone, #SH3024301) media to which non-essential amino acids (Hyclone, #SH30238.01), 10 mM HEPES (Hyclone, #SH302237.01), 5×10^6 units of penicillin and streptomycin (Hyclone, #SV30010), and 10% of heat inactivated fetal bovine serum (Gibco, #10082147) were added. Cells were harvested using 0.05% Trypsin (Hyclone, #SH3023601), washed with PBS, and dispensed into sterile white, optical bottom 384-well plates (NUNC, #142762). After three hours, small molecule DMSO solutions were transferred with a Tecan Freedom EVO liquid handling system equipped with a 100 nL pin tool (V&P Scientific). The controls were 3-dibutylamino-1-(4-hexyl-phenyl)-propan-1-one (25 mM in DMSO, positive control) and DMSO (negative control). The cells were incubated for 48 hours followed by the addition of CellTiter-Glo™, a luminescence-based cell viability assay (Promega, Madison, WI). All luminescence readings were performed on a Tecan Infinite M1000 plate reader. The assay was carried out in quadruplet with two independent runs. The data were analyzed by nonlinear regression.

RAW macrophages [1] = assay: Cell viability (CellTiter-Glo), RAW macrophages; format: cell-based, mouse; settings: CellTiter-Glo
Mouse microglia [2] = assay: NO production (Griess assay), LPS/IFNγ-activated mouse microglia; format: cell-based; settings: for Inhibition of NO production (%) Mouse microglia 10 μM: 24 hours, 1 μM GABA, LPS/IFNγ
Mouse microglia [3] = assay: Cell viability (CellTiter-Glo), mouse microglia; format: cell-based; settings: 50 μM, CellTiter-Glo
Summary of the method: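 Mouse microglia (1×10^6 cells/mL) activated with 50 ng/ml LPS plus 150 U/mL IFNγ, incubated with compounds ~24 h at 37° C. Viability of remaining cells read by CellTiter-Glo luminescence after supernatant removal for Griess NO assay; […].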

RAW macrophages [4] = assay: NO production (Griess assay), LPS/IFNγ-activated RAW264.7 macrophages; format: cell-based, mouse; settings: for Inhibition of NO production (%) RAW macrophages 10 μM: 24 hours, 1 μM GABA, LPS/IFNγ
HEK293 = assay: Viability assay (CellTiter-Glo), HEK293; format: cell-based, human; settings: for Cell viability (%) HEK293 120 μM: CellTiter-Glo
Method: as §1, §2

| SMILES | Cell viability (%) HEPG2 120 μM (HEPG2) | Cell viability (%) RAW macrophages 50 μM (RAW macrophages [1]) | Inhibition of NO production (%) Mouse microglia 10 μM (Mouse microglia [2]) | Cell viability (%) Mouse microglia 50 μM (Mouse microglia [3]) | Inhibition of NO production (%) RAW macrophages 10 μM (RAW macrophages [4]) | Cell viability (%) HEK293 120 μM (HEK293) | inhibition at 10 µM (Mouse microglia [2]; Mus musculus, Microglia, 24 h) | inhibition at 10 µM (RAW macrophages [4]; Mus musculus, Macrophage, 24 h) | inhibition at 50 µM (Mouse microglia [2]; Mus musculus, Microglia, 24 h) | inhibition at 50 µM (RAW macrophages [4]; Mus musculus, Macrophage, 24 h) | toxicity at 120 μM (in words) (HEPG2; HepG2, 120 μM) | toxicity at 120 μM (in words) (HEK293; HEK293, 120 μM) |
| --- | --- | --- | --- | --- | --- | --- | --- | --- | --- | --- | --- | --- |
| C#Cc1ccc2c(c1)C(c1ccccc1F)=NC(C)C(=O)N2C (stereo not shown) [GL-III-25] | 100 ± 5% | 100 ± 8% | 25 ± 10% | 98 ± 4% | 38 ± 9% | 93 ± 4% | – | – | – | – | – | – |
| C#Cc1ccc2c(c1)C(c1ccccc1F)=NC(C)c1c(C(=S)NCC)ncn1-2 (stereo not shown) [GL-III-86] | 100 ± 8% | 100 ± 14% | 39 ± 7% | 99 ± 15% | 7 ± 4% | 66 ± 10% | – | – | – | – | – | – |
| CCOC(=O)c1ncn2c1[C@@H](C)N=C(c1ccccn1)c1cc(C#C[Si](C)(C)C)ccc1-2 [GL-II-18] | 100 ± 8% | 99 ± 2% | 49 ± 10% | 89 ± 9% | 11 ± 4% | 53 ± 10% | – | – | – | – | – | – |
| C#Cc1ccc2c(c1)C(c1ccccn1)=N[C@H](C)c1c(-c3nc(CC)no3)ncn1-2 [GL-III-97] | 100 ± 12% | 98 ± 3% | 11 ± 6% | 100 ± 4% | 6 ± 1% | 54 ± 9% | – | – | – | – | – | – |
| CC(C)c1noc(-c2ncn3c2[C@@H](C)N=C(c2ccccc2F)c2cc(Br)ccc2-3)n1 [GL-IV-01, (R)-5-(8-Bromo-6-(2-fluorophenyl)-4-methyl-4H-benzo[f]imidazo[1,5-a][1,4]diazepin-3-yl)-3-isopropyl-1,2,4-oxadiazole] | 100 ± 9% | 100 ± 9% | – | 100 ± 9% | – | 72 ± 8% | 56 ± 11% | 17 ± 7% | – | – | – | – |
| C#Cc1ccc2c(c1)C(c1ccccc1F)=N[C@H](C)c1c(-c3nc(CC)no3)ncn1-2 [MP-IV-005, (R)-3-ethyl-5-(8-ethynyl-6-(2-fluorophenyl)-4-methyl-4H-benzo[f]imidazo[1,5-a][1,4]diazepin-3-yl)-1,2,4-oxadiazole] | 98 ± 8% | 86 ± 14% | – | 86 ± 13% | – | 68 ± 14% | 45 ± 3% | 5 ± 3% | 89 ± 17% | 59 ± 9% | – | – |
| CC1N=C(c2ccccc2F)c2cc(C#C[Si](C)(C)C)ccc2-n2cnc(-c3cnco3)c21 (stereo not shown) [GL-III-77] | 0 ± 4% | 85 ± 3% | 31 ± 2% | 98 ± 4% | 29 ± 2% | 0 ± 2% | – | – | – | – | toxic | toxic |
| O=C(O)c1ncn2c1CN=C(c1ccccc1)c1cc(Br)ccc1-2 [GL-I-50] | 100 ± 2% | 100 ± 9% | 33 ± 6% | 88 ± 9% | 0 ± 1% | 97 ± 12% | – | – | – | – | – | – |
| C#Cc1ccc2c(c1)C(c1ccccc1F)=N[C@H](C)C(=O)N2 [GL-I-62] | 89 ± 10% | 100 ± 3% | 13 ± 7% | 92 ± 7% | 3 ± 2% | 79 ± 7% | – | – | – | – | – | – |
| C#Cc1ccc2c(c1)C(c1ccccc1F)=NC(C)c1c(C(=S)NC)ncn1-2 (stereo not shown) [GL-III-84] | 100 ± 10% | 100 ± 12% | 32 ± 4% | 96 ± 8% | 10 ± 5% | 64 ± 5% | – | – | – | – | – | – |
| CC(C)c1noc(-c2ncn3c2[C@@H](C)N=C(c2ccccc2F)c2cc(C4CC4)ccc2-3)n1 [GL-IV-04, (R)-5-(8-Cyclopropyl-6-(2-fluorophenyl)-4-methyl-4H-benzo[f]imidazo[1,5-a][1,4]diazepin-3-yl)-3-isoproyl-1,2,4-oxadiazole] | 100 ± 6% | 100 ± 7% | – | 86 ± 6% | – | 71 ± 6% | 62 ± 8% | 11 ± 2% | – | – | – | – |
| C#Cc1ccc2c(c1)C(c1ccccn1)=NC(C)C(=O)N2C (stereo not shown) [GL-II-61] | 82 ± 3% | 100 ± 8% | 28 ± 2% | 91 ± 8% | 10 ± 4% | 83 ± 10% | – | – | – | – | – | – |
| CC1N=C(c2ccccc2F)c2cc(Br)ccc2-n2cnc(C=O)c21 (stereo not shown) [GL-III-35] | 98 ± 8% | 100 ± 2% | 17 ± 7% | 100 ± 8% | 0 ± 4% | 79 ± 8% | – | – | – | – | – | – |
| C#Cc1ccc2c(c1)C(c1ccccc1F)=NCc1c(C(=O)O)ncn1-2 [GL-II-79] | 100 ± 7% | 100 ± 3% | 44 ± 6% | 84 ± 5% | 0 ± 3% | 91 ± 13% | – | – | – | – | – | – |
| CCOC(=O)c1ncn2c1[C@@H](C)N=C(c1ccccc1F)c1cc(Cl)ccc1-2 [GL-III-53] | 94 ± 10% | 97 ± 7% | 85 ± 14% | 72 ± 7% | 3 ± 2% | 47 ± 10% | – | – | – | – | – | – |
